The values that follow come from PMC8178126, “Evaluation of the available cholesterol concentration in the inner leaflet of the plasma membrane of mammalian cells” (Journal of Lipid Research, 2021).

The target of the assay is T1, Osh4-Δ1-40 (template of Osh4-Δ1-40(K109A) and eOsh4) (Saccharomyces cerevisiae, UniProt P35844, K109A).
T1 construct: gene KES1; N-terminal lid (aa 1-40) removed; pET-30a, N- and C-terminal His6 tags (printed for eOsh4), E. coli BL21 RIL codon plus
Kind of assay: SPR (BIACORE X-100, L1 chip, immobilised LUVs, equilibrium Req). As to conditions: apparent, 20 mM Tris pH 7.4, 0.16 M NaCl, 23 °C. The class given is binding. (In SPR one partner is held on a chip, and binding of the other changes the refractive index at the surface.)

Take `C[C@H](CCCC(C)(C)O)[C@H]1CC[C@H]2[C@@H]3CC=C4C[C@@H](O)CC[C@]4(C)[C@H]3CC[C@]12C` [25-hydroxycholesterol]: the Kd (protein concentration at half-maximal binding to POPC/POPS/25HC 75:20:5 LUVs (Fig. 3D legend 77:20:5)) was found to be 800 ± 130 nM.
`CC(C)CCC[C@@H](C)[C@H]1CC[C@H]2[C@@H]3CC=C4C[C@@H](O)CC[C@]4(C)[C@H]3CC[C@]12C` [cholesterol]: the Kd (protein concentration at half-maximal binding to POPC/POPS/cholesterol 75:20:5 LUVs (Fig. 3D legend 77:20:5)) turned out to be 100 ± 16 nM.
